#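 Test compounds were applied to cells in 96-well plates for 48 hours at 5 doses. GI50 = concentration required for 50% inhibition of growth. At the TGI there is no net growth.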
# Assays:
# Assay in all cases: inhibition of tumour cell growth, NCI panel, 48 h
# HCT-116 colon = test system: HCT-116 colon
# SNB-19 CNS = test system: SNB-19 CNS
# RXF 393 renal = test system: RXF 393 renal
# PC-3 prostate = test system: PC-3 prostate
# UACC-257 melanoma = test system: UACC-257 melanoma
# SK-OV-3 ovarian = test system: SK-OV-3 ovarian
# T-47D breast = test system: T-47D breast
# SF-268 CNS = test system: SF-268 CNS
# SK-MEL-28 melanoma = test system: SK-MEL-28 melanoma
# HS 578T breast = test system: HS 578T breast
# RPMI-8226 leukemia = test system: RPMI-8226 leukemia
# SNB-75 CNS = test system: SNB-75 CNS
# ACHN renal = test system: ACHN renal
# CCRF-CEM leukemia = test system: CCRF-CEM leukemia
# HOP-92 NSCLC = test system: HOP-92 NSCLC
# U251 CNS = test system: U251 CNS
# HCC-2998 colon = test system: HCC-2998 colon
# HT29 colon = test system: HT29 colon
# EKVX NSCLC = test system: EKVX NSCLC
# MCF7 breast = test system: MCF7 breast
# MDA-MB-231 breast = test system: MDA-MB-231 breast
# HCT-15 colon = test system: HCT-15 colon
# COLO 205 colon = test system: COLO 205 colon
# MDA-MB-435 = test system: MDA-MB-435
# OVCAR-3 ovarian = test system: OVCAR-3 ovarian
# NCI/ADR-RES ovarian = test system: NCI/ADR-RES ovarian
# SW-620 colon = test system: SW-620 colon
# NCI-H460 lung = test system: NCI-H460 lung
# DU-145 prostate = test system: DU-145 prostate
# IGROV1 ovarian = test system: IGROV1 ovarian
# CAKI-1 renal = test system: CAKI-1 renal
# K-562 leukemia = test system: K-562 leukemia
# NCI-H522 lung = test system: NCI-H522 lung
# SF-295 CNS = test system: SF-295 CNS
# MOLT-4 leukemia = test system: MOLT-4 leukemia
# OVCAR-5 ovarian = test system: OVCAR-5 ovarian
# BT-549 breast = test system: BT-549 breast
# UO-31 renal = test system: UO-31 renal
# SF-539 CNS = test system: SF-539 CNS
# NCI-H23 lung = test system: NCI-H23 lung
# KM12 colon = test system: KM12 colon
# 786-0 renal = test system: 786-0 renal
# LOX IMVI melanoma = test system: LOX IMVI melanoma
# UACC-62 melanoma = test system: UACC-62 melanoma
# SK-MEL-5 melanoma = test system: SK-MEL-5 melanoma
# OVCAR-8 ovarian = test system: OVCAR-8 ovarian
# HOP-62 NSCLC = test system: HOP-62 NSCLC
# A549 NSCLC = test system: A549 NSCLC
# SN12C renal = test system: SN12C renal
# OVCAR-4 ovarian = test system: OVCAR-4 ovarian
# M14 melanoma = test system: M14 melanoma
# TK-10 renal = test system: TK-10 renal
# SK-MEL-2 melanoma = test system: SK-MEL-2 melanoma
# SR leukemia = test system: SR leukemia
# HL-60(TB) leukemia = test system: HL-60(TB) leukemia
# NCI-H226 lung = test system: NCI-H226 lung
# MALME-3M melanoma = test system: MALME-3M melanoma
# A498 renal = test system: A498 renal
smiles,measurement,setting,value
C=CCC(N[C@H](CO)C(C)C)c1cn(C(=O)OCC)c2ccccc12 (some centres not stated),GI50,HCT-116 colon,24.2 µM
same,TGI,HCT-116 colon,68.8 µM
same,GI50,SNB-19 CNS,59.9 µM
same,TGI,SNB-19 CNS,> 100 µM
same,GI50,RXF 393 renal,18.9 µM
same,TGI,RXF 393 renal,54.2 µM
same,GI50,PC-3 prostate,15.9 µM
same,TGI,PC-3 prostate,43.9 µM
same,GI50,UACC-257 melanoma,18.3 µM
same,TGI,UACC-257 melanoma,44.2 µM
same,GI50,SK-OV-3 ovarian,81.3 µM
same,TGI,SK-OV-3 ovarian,> 100 µM
same,GI50,T-47D breast,39.9 µM
same,TGI,T-47D breast,> 100 µM
same,GI50,SF-268 CNS,33.4 µM
same,TGI,SF-268 CNS,> 100 µM
same,GI50,SK-MEL-28 melanoma,53.6 µM
same,TGI,SK-MEL-28 melanoma,> 100 µM
same,GI50,HS 578T breast,22.7 µM
same,TGI,HS 578T breast,> 100 µM
same,GI50,RPMI-8226 leukemia,13.3 µM
same,TGI,RPMI-8226 leukemia,40.7 µM
same,GI50,SNB-75 CNS,69.3 µM
same,TGI,SNB-75 CNS,> 100 µM
same,GI50,ACHN renal,32.1 µM
same,TGI,ACHN renal,> 100 µM
same,GI50,CCRF-CEM leukemia,22.4 µM
same,TGI,CCRF-CEM leukemia,70.2 µM
same,GI50,HOP-92 NSCLC,14.1 µM
same,TGI,HOP-92 NSCLC,45.6 µM
same,GI50,U251 CNS,27.4 µM
same,TGI,U251 CNS,> 100 µM
same,GI50,HCC-2998 colon,17 µM
same,TGI,HCC-2998 colon,33.6 µM
same,GI50,HT29 colon,36.1 µM
same,TGI,HT29 colon,> 100 µM
same,GI50,EKVX NSCLC,22.9 µM
same,TGI,EKVX NSCLC,77 µM
same,GI50,MCF7 breast,35 µM
same,TGI,MCF7 breast,> 100 µM
same,GI50,MDA-MB-231 breast,13.2 µM
same,TGI,MDA-MB-231 breast,31.2 µM
same,GI50,HCT-15 colon,32.4 µM
same,TGI,HCT-15 colon,> 100 µM
same,GI50,COLO 205 colon,25.4 µM
same,TGI,COLO 205 colon,65.9 µM
same,GI50,MDA-MB-435,20.3 µM
same,TGI,MDA-MB-435,50.5 µM
same,GI50,OVCAR-3 ovarian,16.6 µM
same,TGI,OVCAR-3 ovarian,43.3 µM
same,GI50,NCI/ADR-RES ovarian,21.8 µM
same,TGI,NCI/ADR-RES ovarian,61 µM
same,GI50,SW-620 colon,27.9 µM
same,TGI,SW-620 colon,> 100 µM
same,GI50,NCI-H460 lung,32.4 µM
same,TGI,NCI-H460 lung,> 100 µM
same,GI50,DU-145 prostate,30.1 µM
same,TGI,DU-145 prostate,> 100 µM
same,GI50,IGROV1 ovarian,7.81 µM
same,TGI,IGROV1 ovarian,57.1 µM
same,GI50,CAKI-1 renal,13.8 µM
same,TGI,CAKI-1 renal,41.1 µM
same,GI50,K-562 leukemia,11.1 µM
same,TGI,K-562 leukemia,25.8 µM
same,GI50,NCI-H522 lung,17.9 µM
same,TGI,NCI-H522 lung,40.2 µM
same,GI50,SF-295 CNS,15.9 µM
same,TGI,SF-295 CNS,38.1 µM
same,GI50,MOLT-4 leukemia,15.4 µM
same,TGI,MOLT-4 leukemia,34.7 µM
same,GI50,OVCAR-5 ovarian,48.6 µM
same,TGI,OVCAR-5 ovarian,> 100 µM
same,GI50,BT-549 breast,24.7 µM
same,TGI,BT-549 breast,67.8 µM
same,GI50,UO-31 renal,45.2 µM
same,TGI,UO-31 renal,> 100 µM
same,GI50,SF-539 CNS,28.2 µM
same,TGI,SF-539 CNS,69.9 µM
same,GI50,NCI-H23 lung,19.1 µM
same,TGI,NCI-H23 lung,49.3 µM
same,GI50,KM12 colon,21.7 µM
same,TGI,KM12 colon,59.7 µM
same,GI50,786-0 renal,28.4 µM
same,TGI,786-0 renal,72.7 µM
same,GI50,LOX IMVI melanoma,19.4 µM
same,TGI,LOX IMVI melanoma,49.5 µM
same,GI50,UACC-62 melanoma,22.7 µM
same,TGI,UACC-62 melanoma,54.8 µM
same,GI50,SK-MEL-5 melanoma,10.2 µM
same,TGI,SK-MEL-5 melanoma,23.7 µM
same,GI50,OVCAR-8 ovarian,21.7 µM
same,TGI,OVCAR-8 ovarian,48.2 µM
same,GI50,HOP-62 NSCLC,28.6 µM
same,TGI,HOP-62 NSCLC,89.1 µM
same,GI50,A549 NSCLC,24.9 µM
same,TGI,A549 NSCLC,82 µM
same,GI50,SN12C renal,19.7 µM
same,TGI,SN12C renal,51.6 µM
same,GI50,OVCAR-4 ovarian,49.6 µM
same,TGI,OVCAR-4 ovarian,> 100 µM
same,GI50,M14 melanoma,21.3 µM
same,TGI,M14 melanoma,46 µM
same,GI50,TK-10 renal,13.7 µM
same,TGI,TK-10 renal,44.1 µM
same,GI50,SK-MEL-2 melanoma,42.3 µM
same,TGI,SK-MEL-2 melanoma,> 100 µM
CN(C)c1ccc2nc3ccc(=[N+](C)C)cc-3oc2c1,GI50,HCT-116 colon,0.892 µM
same,TGI,HCT-116 colon,12.1 µM
same,GI50,SNB-19 CNS,2.49 µM
same,TGI,SNB-19 CNS,> 100 µM
same,GI50,RXF 393 renal,10.6 µM
same,TGI,RXF 393 renal,50.4 µM
same,GI50,PC-3 prostate,0.52 µM
same,TGI,PC-3 prostate,> 100 µM
same,GI50,UACC-257 melanoma,0.697 µM
same,TGI,UACC-257 melanoma,3.34 µM
same,GI50,SK-OV-3 ovarian,6.65 µM
same,TGI,SK-OV-3 ovarian,45.2 µM
same,GI50,T-47D breast,0.582 µM
same,TGI,T-47D breast,6.59 µM
same,GI50,SF-268 CNS,1.59 µM
same,TGI,SF-268 CNS,4.64 µM
same,GI50,SK-MEL-28 melanoma,5.72 µM
same,TGI,SK-MEL-28 melanoma,45.7 µM
same,GI50,HS 578T breast,15.8 µM
same,TGI,HS 578T breast,64 µM
same,GI50,RPMI-8226 leukemia,0.684 µM
same,TGI,RPMI-8226 leukemia,21 µM
same,GI50,SNB-75 CNS,2.63 µM
same,TGI,SNB-75 CNS,17.1 µM
same,GI50,ACHN renal,7.28 µM
same,TGI,ACHN renal,52.4 µM
same,GI50,CCRF-CEM leukemia,1.21 µM
same,TGI,CCRF-CEM leukemia,32.2 µM
same,GI50,U251 CNS,0.725 µM
same,TGI,U251 CNS,4.8 µM
same,GI50,HCC-2998 colon,3.56 µM
same,TGI,HCC-2998 colon,> 100 µM
same,GI50,HT29 colon,3.38 µM
same,TGI,HT29 colon,29.3 µM
same,GI50,SR leukemia,2.06 µM
same,TGI,SR leukemia,23.8 µM
same,GI50,EKVX NSCLC,0.636 µM
same,TGI,EKVX NSCLC,6.76 µM
same,GI50,MCF7 breast,0.368 µM
same,TGI,MCF7 breast,2.3 µM
same,GI50,HCT-15 colon,3.48 µM
same,TGI,HCT-15 colon,> 100 µM
same,GI50,COLO 205 colon,0.391 µM
same,TGI,COLO 205 colon,1.68 µM
same,GI50,MDA-MB-435,2.73 µM
same,TGI,MDA-MB-435,15.8 µM
same,GI50,OVCAR-3 ovarian,0.4 µM
same,TGI,OVCAR-3 ovarian,5.09 µM
same,GI50,NCI/ADR-RES ovarian,12.1 µM
same,TGI,NCI/ADR-RES ovarian,97.9 µM
same,GI50,SW-620 colon,1.74 µM
same,TGI,SW-620 colon,> 100 µM
same,GI50,HL-60(TB) leukemia,0.269 µM
same,TGI,HL-60(TB) leukemia,1.2 µM
same,GI50,NCI-H460 lung,2.82 µM
same,TGI,NCI-H460 lung,> 100 µM
same,GI50,DU-145 prostate,5.71 µM
same,TGI,DU-145 prostate,49.4 µM
same,GI50,IGROV1 ovarian,1.86 µM
same,TGI,IGROV1 ovarian,5.01 µM
same,GI50,CAKI-1 renal,5.92 µM
same,TGI,CAKI-1 renal,57.6 µM
same,GI50,K-562 leukemia,1.58 µM
same,TGI,K-562 leukemia,71.9 µM
same,GI50,SF-295 CNS,3.74 µM
same,TGI,SF-295 CNS,22.5 µM
same,GI50,NCI-H226 lung,2.1 µM
same,TGI,NCI-H226 lung,6.76 µM
same,GI50,MOLT-4 leukemia,1.76 µM
same,TGI,MOLT-4 leukemia,5.04 µM
same,GI50,BT-549 breast,11.2 µM
same,TGI,BT-549 breast,74.2 µM
same,GI50,UO-31 renal,12.8 µM
same,TGI,UO-31 renal,89.3 µM
same,GI50,SF-539 CNS,0.707 µM
same,TGI,SF-539 CNS,15.4 µM
same,GI50,NCI-H23 lung,0.788 µM
same,TGI,NCI-H23 lung,5.6 µM
same,GI50,KM12 colon,1.18 µM
same,TGI,KM12 colon,> 100 µM
same,GI50,786-0 renal,16.5 µM
same,TGI,786-0 renal,90.9 µM
same,GI50,MALME-3M melanoma,1.67 µM
same,TGI,MALME-3M melanoma,4.13 µM
same,GI50,LOX IMVI melanoma,2.32 µM
same,TGI,LOX IMVI melanoma,9.28 µM
same,GI50,UACC-62 melanoma,2.32 µM
same,TGI,UACC-62 melanoma,19.2 µM
same,GI50,SK-MEL-5 melanoma,0.47 µM
same,TGI,SK-MEL-5 melanoma,1.65 µM
same,GI50,OVCAR-8 ovarian,2.13 µM
same,TGI,OVCAR-8 ovarian,7.36 µM
same,GI50,HOP-62 NSCLC,3.58 µM
same,TGI,HOP-62 NSCLC,50.5 µM
same,GI50,A549 NSCLC,2.91 µM
same,TGI,A549 NSCLC,84.1 µM
same,GI50,SN12C renal,0.892 µM
same,TGI,SN12C renal,3.5 µM
same,GI50,M14 melanoma,0.959 µM
same,TGI,M14 melanoma,3.77 µM
same,GI50,TK-10 renal,17.2 µM
same,TGI,TK-10 renal,57.2 µM
same,GI50,A498 renal,13.7 µM
same,TGI,A498 renal,41.9 µM
same,GI50,SK-MEL-2 melanoma,2.38 µM
same,TGI,SK-MEL-2 melanoma,11.1 µM

# — PubChem BioAssay (NCI)
